Assay [1] concerns the target T1, IDO1 (Homo sapiens, UniProt P14902). The assay can be described thus: IDO1 Human Whole Blood Assay. In kind it is cell-based. Particulars: LPS and IFNγ 100 ng/mL, overnight (18 h), kynurenine by LC/MS/MS; for pIC50: read-out: Human Whole Blood Potency, IC50. How it is done: IDO1 Human Whole Blood Assay Compounds to be tested were serially diluted in ten 3-fold steps in DMSO starting from 10 mM. 3 μL of compound dilutions or DMSO alone were then dispensed from the dilution plate into a polypropylene 96-well assay plate containing 97 μL of RPMI using an Echo 555 acoustic liquid handler (Labcyte). LPS and IFNγ was prepared in RPMI to a 10× of final conc. (1000 ng/mL), final concentration is 100 ng/mL. […] 240 μL of blood was transferred to each of the wells of a v-bottom 96 well plate. 30 μL of compound was transferred from intermediate dilution plate, and incubated for 15 min. 30 μL from stimulants was then transferred to blood and mixed thoroughly. Plate was covered with breathable membrane and incubated at 37° C. for overnight (18 h). […] Plasma was diluted with RPMI in 1:1 ratio and proteins were precipitated out with two volume of Acetonitrile. The plates were centrifuged at 4000×G for 60 min. 20 μL of supernatant was carefully transferred to a 384 well plate contain 40 μL of 0.1% formic acid in water and analyzed by LC/MS/MS. LC/MS/MS analyses were performed using Thermo Fisher's LX4-TSQ Quantum Ultra system. This system consists of four Agilent binary high-performance liquid chromatography (HPLC) pumps and a TSQ Quantum Ultra triple quadrupole MS/MS instrument. For each sample, 5 μL were injected onto an Atlantis T3 column (2.1 mm×150 mm, 3 μm particle size) from Waters. The mobile phase gradient pumped at 0.8 mL/min was used to elute the analytes from the column at 25° C. The elution started at 0% B increasing linearly to 25% B at 6.5 min, holding at 25% for 1 min, re-equilibrating to 10 min. Mobile phase A consisted of 0.1% formic acid in water. Mobile phase B consisted of 0.1% of formic acid in acetonitrile. Data was acquired in positive mode using a HESI interface. The operational parameters for the TSQ Quantum Ultra instrument were a spray voltage of 4000 V, capillary temperature of 380° C., vaporizer temperature 400° C., shealth gas 60 arbitrary units, Aux gas 20 arbitrary units, tube lens 85 and collision gas 1.2 mTorr. SRM chromatograms of kynurenine (Q1: 209.2>Q3:94.0) and internal standard (Q1: 215.3>Q3:98.2) were collected for 90 sec. The peak area was integrated by Xcalibur Quan software. […] Compounds were titrated and IC50's were calculated by 4 parameter sigmoidal curve fitting formula.

In assay [2] the target is T1, IDO1. The assay is described as follows: IDO1 Cellular Assay in HeLa Cells Stimulated with IFNγ. In kind it is cell-based. The following applies: HeLa Cell Potency, IC50 (nM).

pIC50: −log10 of the molar value.

T1 sequence (P14902 whole entry): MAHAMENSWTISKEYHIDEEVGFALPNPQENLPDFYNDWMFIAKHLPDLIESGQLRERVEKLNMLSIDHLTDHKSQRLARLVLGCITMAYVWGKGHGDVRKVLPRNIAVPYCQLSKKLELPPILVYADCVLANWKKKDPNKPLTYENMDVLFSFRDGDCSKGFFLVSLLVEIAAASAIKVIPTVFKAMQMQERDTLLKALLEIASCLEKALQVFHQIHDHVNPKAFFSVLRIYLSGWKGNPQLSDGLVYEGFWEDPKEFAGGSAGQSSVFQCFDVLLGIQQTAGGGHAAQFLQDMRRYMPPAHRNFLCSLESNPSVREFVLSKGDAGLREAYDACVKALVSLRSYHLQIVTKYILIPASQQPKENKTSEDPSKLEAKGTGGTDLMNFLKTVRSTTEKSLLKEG

For `Cc1cccnc1O[C@H]1CC[C@@H](CCn2nc(C(=O)N3CC[C@H](O)[C@H](F)C3)c3c2C[C@H]2C[C@@H]32)CC1` [Example 83, [(3R,4S)-3-fluoro-4-hydroxypiperidin-1-yl] [(3bR,4aR)-1-(2-{cis-4-[(3-methylpyridin-2-yl)oxy]cyclohexyl}ethyl)-3b,4,4a,5-tetrahydro-1H-cyclopropa[3,4]cyclopenta [1,2-c]pyrazol-3-yl] methanone], the pIC50 on IDO1 [1] is 6.96.
For `Cc1cccnc1O[C@H]1CC[C@@H](CCn2nc(C(=O)N3CCC(O)CC3)c3c2C[C@H](C(F)F)CC3)CC1` [Example 87, [(6R)-6-(difluoromethyl)-1-(2-{cis-4-[(3-methylpyridin-2-yl)oxy]cyclohexyl}ethyl)-4,5,6,7-tetrahydro-1H-indazol-3-yl](4-hydroxypiperidin-1-yl)methanone], the pIC50 at IDO1 [1] is 6.13.
Same read-out and setting: the figure for `CC(=O)NC1CCN(C(=O)c2nn(CCN3CCN(c4cccc(C)c4C)CC3)c3c2[C@@H]2C[C@@H]2C3)CC1` [Example 100, N-(1-((3bR,4aR)-1-(2-(4-(2,3-dimethylphenyl)piperazin-1-yl)ethyl)-3b,4,4a,5-tetrahydro-1H-cyclopropa[3.4]cyclopenta[1,2-c]pyrazole-3-carbonyl)piperidin-4-yl)acetamide] is 6.61.
The same measure, in the same setting: the figure for `CC(=O)NC1CCN(C(=O)c2nn(CCN3CCN(c4cccc(Cl)c4C)CC3)c3c2[C@@H]2C[C@@H]2C3)CC1` [Example 102, N-(1-((3bR,4aR)-1-(2-(4-(3-chloro-2-methylphenyl)piperazin-1-yl)ethyl)-3b,4,4a,5-tetrahydro-1H-cyclopropa[3,4]cyclopenta[1,2-c]pyrazole-3-carbonyl)piperidin-4-yl)acetamide] is 6.58.
Take `Cc1cccc(N2CCC(CCn3nc(C(=O)N4CCCC4)c4ccccc43)CC2)c1C` [Example 103]: the IC50 on IDO1 [1] (Human Whole Blood Potency, IC50 (nM)) stood at 1030 nM; on IDO1 [2], 15.4 nM.

The record behind these values is US12152019B2, “Arylalkyl pyrazole compounds as indoleamine 2,3-dioxygenase inhibitors” (Merck Sharp & Dohme LLC, priority 2018, dated 2024).
